The numbers were not newly measured in patent publication US20110015074A1, “STABILIZED HERBICIDAL FORMULATIONS AND METHODS OF USE” (priority 2009, published 2011), which cites them from elsewhere.

Each structure is given as a SMILES string.

The conditions of this series: sunlight (UV), after the end of the second year of storage period.

`CCSC(C)CC1CC(=O)C(/C(CC)=N/OC/C=C/Cl)=C(O)C1` (racemic) [clethodim (technical), (±)-2-[(E)-1-[(E)-3-Chloroallyloxyimino]propyl]-5-[2-(ethylthio)propyl]-3-hydroxycyclohex-2-enone]: the “loss or degradation of clethodim” value was 42.33 % active ingredient.
